US20090299049A1, “Bicyclic Compounds and Their Use” (priority 2006, published 2009)

Experiments:
[1] = UV absorbance and fluorescence of ribonucleoside analogues in DMSO (molar extinction coefficient, quantum yield); type: physicochemical; conditions: for Quantum yield: relative to quinine sulphate and anthracene standards
Text: UV absorbance and fluorescence excitation and emission data were used to determine the molar extinction coefficient and fluorescence quantum yield of a several adenosine and guanosine ribonucleoside analogues in DMSO (see the Table below). The data acquired support the concept that the fluorescence properties of these analogues can be tuned by altering the electron-donating or electron-withdrawing R-group on the terminal phenylalkyne. Fourteen electron-donating or electron-withdrawing R-groups were coupled to purine bases at the 8-position. […] This makes the analogues extremely useful for the quantification of analogue-containing nucleic acid products in a DNA or RNA background. […] The position (ortho, meta or para) of the R-group on the phenyl ring can also be used to tune the fluorescent properties of the analogues. The ring position of the R-group has a smaller effect on the fluorescent properties of the analogues. Greater changes in the excitation/emission wavelength, molar extinction coefficient and quantum yield can be induced by changing the type of R-group (electron-donating vs. electron-withdrawing) as compared to the position of a R-group on the phenyl ring (ortho, meta or para). The quantum yields of the unphosphorylated analogues were measured relative to quinine sulphate and anthracene standards. […] This provides additional support for the idea that the purine bases can both push and pull electrons in π-conjugated systems.

[2] = Optical properties: UV-visible spectra, fluorescence excitation and emission; type: physicochemical; conditions: for Stokes shift: (1/λex − 1 λem); for λem: fluorescence emission wavelength; for λex: fluorescence excitation wavelength
Text: The optical properties of several novel chromophores were investigated. UV-visible spectra reveal an intense absorption in the UV region for all the compounds evaluated.

Molecule | Molar absorption coefficient [1] [M⁻¹ cm⁻¹] | Wavelength at fluorescence emission maximum [1] [nm] | Wavelength at maximum in UV absorption [1] [nm] | Quantum yield [1] [%] | Stokes shift [2] [cm⁻¹] | λem [2] [nm] | λex [2] [nm]
Nc1ncnc2c1nc(C#Cc1cccc(C(F)(F)F)c1)n2[C@@H]1O[C@H](CO)[C@@H](O)[C@H]1O [Adenosine —CF3 meta] | 19547 | 421 | 326 | 21 |  |  | 
Nc1ncnc2c1nc(C#Cc1ccc(Cl)cc1)n2[C@@H]1O[C@H](CO)[C@@H](O)[C@H]1O [Adenosine —Cl para] | 23927 | 410 | 326 | 46 |  |  | 
CC(=O)c1ccc(C#Cc2nc3c(N)ncnc3n2[C@@H]2O[C@H](CO)[C@@H](O)[C@H]2O)cc1 [Compound 6f, 8-(4′-Acetophenonephenylethynyl)adenosine] | 19639 | 493 | 343 | 4.9 | 6454 | 493 | 374
COc1cccc(C#Cc2nc3c(N)ncnc3n2[C@@H]2O[C@H](CO)[C@@H](O)[C@H]2O)c1 [Adenosine —OCH3 meta] | 19589 | 400 | 324 | 52 |  |  | 
Nc1nc2c(nc(C#Cc3ccc(Cl)cc3)n2[C@@H]2O[C@H](CO)[C@@H](O)[C@H]2O)c(=O)[nH]1 [Guanosine —Cl para] | 23317 | 431 | 338 | 1.9 |  |  | 
Nc1nc2c(nc(C#Cc3ccccc3C(F)(F)F)n2[C@@H]2O[C@H](CO)[C@@H](O)[C@H]2O)c(=O)[nH]1 [Guanosine —CF3 ortho] |  | 421 | 347 | 1.1 |  |  | 
Nc1ncnc2c1nc(C#Cc1ccc(F)cc1)n2[C@@H]1O[C@H](CO)[C@@H](O)[C@H]1O [Adenosine —F para] | 5558 | 396 | 320 | 40 |  |  | 
Nc1nc2c(nc(C#Cc3ccc(F)cc3)n2[C@@H]2O[C@H](CO)[C@@H](O)[C@H]2O)c(=O)[nH]1 [Guanosine —F para] | 11304 | 416 | 333 | 2.4 |  |  | 
Nc1ncnc2c1nc(C#Cc1cccc3ccccc13)n2[C@@H]1O[C@H](CO)[C@@H](O)[C@H]1O [Compound 6h, 8-(Napthylethynyl)adenosine] | 22970 | 430 | 349 | 49 | 3394 | 431 | 376
8-(1′-Ethynylferrocene)adenosine [Compound 6i] |  |  |  |  | 3986 | 434 | 370
8-(1′-Ethynylferrocene)guanosine [Compound 5i] |  |  |  |  | 3537 | 439 | 380
COc1cccc(C#Cc2nc3c(=O)[nH]c(N)nc3n2[C@@H]2O[C@H](CO)[C@@H](O)[C@H]2O)c1 [Guanosine —OCH3 meta] | 20261 | 420 | 334 | 3.6 |  |  | 
COc1ccccc1C#Cc1nc2c(N)ncnc2n1[C@@H]1O[C@H](CO)[C@@H](O)[C@H]1O [Adenosine —OCH3 ortho] |  | 429 | 333 | 21 |  |  | 
